Each structure is given as a SMILES string. Where two headings read alike, the source gives them in different places. Some results are limits rather than exact numbers.

Data set [1] in a line: Stability of curcumin in the receptor medium. In kind it is physicochemical. The conditions noted are these: 6% Volpo in water, 35 °C, at 0, 1, 6, 12 and 24 h. The procedure: Standard solutions of curcumin (5, 10, 12.5 and 25 µg/mL) were prepared in a 6% Volpo aqueous solution and stored at 35 ± 0.5 °C for 24 h. Samples removed at 1, 6, 12 and 24 h were assayed for drug content by HPLC.

The conditions of data set [2]: cited from earlier work.

Regarding `COc1cc(/C=C/C(=O)CC(=O)/C=C/c2ccc(O)c(OC)c2)ccc1O` [curcumin, Curcumin], the “Amount of curcumin remaining” value in data set [1] is greater than 99%. Further, the “log P” value in data set [2] (no reference given) is 3.6.

As for `CCCCOC(=O)c1ccc(O)cc1` [butyl paraben, reference compound], the lipophilicity (log P) in data set [2] is 3.6.

For orientation: log P means a log measure of how a compound divides between an organic and an aqueous phase.
